# Reference: US20240083846A1, “SMAC MIMETICS FOR TREATMENT OF CANCER, PROCESS FOR PREPARATION AND PHARMACEUTICAL COMPOSITION THEREOF” (COUNCIL OF SCIENTIFIC & INDUSTRIAL RESEARCH, priority 2020, published 2024)
# Columns and labels:
# [1] = test system: MDAMB231 cells; experiment: SRB cytotoxicity assay, MDAMB231; format: cell-based; conditions: Homo sapiens, MDA-MB-231, Breast
# Protocol: (§1) In vitro cytotoxic activities of different compounds were assessed by using standard SRB assay in different cells. The absorbance of the treated and untreated cells was measured on a multi-well scanning spectrophotometer (Epoch Microplate Reader, Biotek, USA) at a wavelength of 510 nm. Percent growth inhibition was calculated by using the formula […].
# (§2) SMAC mimetics promotes tumor cell selective cytotoxic effects. SW 620, HT 29, HCT 116 and VERO cells were treated with series of Smac mimetics at 10 μM dose for 48 hours and cytotoxicity was measured by SRB assay. As C6 had shown robust in-vitro cytotoxic effect against tumor cells but not to VERO cells, we determined IC50 value of C6 against different types of cancer cell lines. ICso values are represented in Table 2.
# [2] = test system: HCC1806 cells; experiment: SRB cytotoxicity assay, HCC1806; format: cell-based; conditions: Homo sapiens, Breast
# Protocol: as §1, §2
# [3] = test system: 786-O cells; experiment: SRB cytotoxicity assay, 786-O; format: cell-based; conditions: Homo sapiens, 786-0, Kidney
# Protocol: as §1, §2
# [4] = test system: A172 cells; experiment: SRB cytotoxicity assay, A172; format: cell-based; conditions: Homo sapiens, A 172, Brain
# Protocol: as §1, §2
# [5] = test system: SK-OV-3 cells; experiment: SRB cytotoxicity assay, SK-OV-3; format: cell-based; conditions: Homo sapiens, Ovary
# Protocol: as §1, §2
# [6] = test system: U937 cells; experiment: SRB cytotoxicity assay, U937; format: cell-based; conditions: Homo sapiens, U-937, Lymphoma
# Protocol: as §1, §2
# [7] = test system: SW-620 xenograft; experiment: Cisplatin resistant SW-620 xenograft model; format: in vivo, nude Crl: CD1-Foxnlnu mice; conditions: FIG. 7
# Description: (§3) All the animals were maintained in a pathogen-free facility under a day—night cycle.
# [8] = test system: HCT-116 xenograft; experiment: HCT-116 xenograft model; format: in vivo, nude Crl: CD1-Foxnlnu mice; conditions: vs control
# Description: as §3
# [9] = xenograft studies, FIG. 7 and FIG. 8
# Protocol: Mice were randomly assigned to groups by a blinded independent investigator. Throughout the study, the tumor was measured with an electronic digital caliper at a regular interval, and the tumor volume was calculated using standard formula V=Π/6×a2×b, where ‘a’ is the short and ‘b’ is the long tumor axis. At the end of the experiment, mice were sacrificed, and subcutaneous tumors were dissected for further studies. Parts of harvested tumors were minced into small pieces with sterile forceps and scissors and homogenized for lysate preparation.
# [10] = test system: XIAP and cIAP1 protein expression; experiment: Immunoblots from tumor tissues (in vivo target engagement); set-up: species or system mice; conditions: vs vehicle treated tumors
# [11] = test system: Annexin-V positive cells; experiment: Annexin-V apoptosis analysis; format: cell-based; conditions: FIG. 2, left
# [12] = test system: cancer cells; experiment: Colony formation assay; format: cell-based; conditions: FIG. 5
# Protocol: The clonogenic colony formation assay was done on single-cell suspension. Briefly, cells were plated in complete McCoy's medium into 12-well plates and 24 hours later, were treated with different agents at different doses either alone or in combination. The cells were cultured for two weeks with renewing the media every 3rd day. The plates were washed with PBS and fixed with ice-cold methanol followed by staining with 0.5% crystal violet in methanol for 30 min. Excess stain was removed by washing with water thoroughly and plates were allowed to dry. Representative images were captured in the gel documentation system (Bio-Rad chemidoc XRS plus) while ImageJ software (NIH) was used for analysis and quantification to monitor single cell colony formation efficiency under the different treatment combinations.
# [13] = Pharmacokinetics of C6 in mice (IV, SC, oral)
# Protocol: SIF, SGF and other stability studies were performed by following standard protocol. […] Mice were administered their respective doses according to body weight by intravenous (lateral vein), Subcutaneous route and Oral respectively. Blood samples were collected at 0.083, 0.25, 0.5, 0.75, 1, 2, 4, 8, 12, 24 and 48 hours. Plasma was separated and processed for analysis. For pharmacokinetic analysis, plasma concentration versus time data were plotted and analyzed by non-compartmental analysis method using WinNonlin (Pharsight, Mountain View, CA) software.
smiles,measurement,setting,value
"CC[C@H](C)[C@H](NC(=O)[C@@H]1CC[C@H](c2ccc(C)o2)N1C(=O)[C@@H](NC(=O)[C@H](C)NC)C(C)C)C(=O)NC(c1ccccc1)c1ccccc1 [Compound 6, (2S,5R)-N-((2S,3S)-1-(benzhydrylamino)-3-methyl-1-oxopentan-2-yl)-1-((S)-3-methyl-2-((S)-2-(methylamino)propanamido)butanoyl)-5-(5-methylfuran-2-yl)pyrrolidine-2-carboxamide]",IC50,[1],4.15 µM
same,IC50,[2],5.79 µM
same,IC50,[3],7.2 µM
same,IC50,[4],6.88 µM
same,IC50,[5],3.91 µM
same,IC50,[6],8.98 µM
same,In vivo anti tumor efficacy,[7],potent anti tumor efficacy
same,Xenograft tumor volume,[8]; oral administration,markedly reduced
same,Xenograft tumor weight,[8]; oral administration,markedly reduced
same,Xenograft tumor volume,[8]; subcutaneous administration,markedly reduced
same,Xenograft tumor weight,[8]; subcutaneous administration,markedly reduced
same,Body weight / tolerability during course of treatment,[9],no weight loss was observed
same,XIAP and cIAP1 protein expression in tumors,[10],reduced XIAP and cIAP1 protein expression
same,Apoptosis (Annexin-V positive cells),[11],promotes smac driven apoptotic features
same,Colony formation in XIAP overexpressed and DR5 knock down cells,[12]; XIAP overexpressed and DR5 knock down cells,significant resistant of C6 mediated apoptotic cell death
same,Colony formation: effect of Pan caspase inhibitor Z-VAD-FMK on C6 cytotoxic phenotype,[12]; with Z-VAD-FMK,markedly rescues cytotoxic phenotype of C6
same,C1,"[13]; mice, IV route, 4 mg/kg",17 ± 4 mL/min/kg
same,C1,"[13]; mice, Oral route, 30 mg/kg",29.8 ± 5.33 mL/min/kg
same,Vd,"[13]; mice, Oral route, 30 mg/kg",9.52 ± 3.75 L/kg
same,C1,"[13]; mice, SC route, 30 mg/kg",29.2 ± 4 mL/min/kg
same,Vd,"[13]; mice, SC route, 30 mg/kg",5.32 ± 0.98 L/kg
same,AUC(0-inf),"[13]; mouse, plasma, iv, 4 mg/kg",4110 ± 852 ng·h/mL
same,Cmax,"[13]; mouse, plasma, iv, 4 mg/kg",10200 ± 2630 ng/mL
same,MRT,"[13]; mouse, plasma, iv, 4 mg/kg",1.72 ± 0.46 h
same,Tmax,"[13]; mouse, plasma, iv, 4 mg/kg",0.08 h
same,Vd,"[13]; mouse, plasma, iv, 4 mg/kg",0.28 ± 0.12 L/kg
same,bioavailability,"[13]; mouse, plasma, oral, 30 mg/kg",55.9 ± 11.2%
same,AUC(0-inf),"[13]; mouse, plasma, po, 30 mg/kg",17200 ± 3430 ng·h/mL
same,Cmax,"[13]; mouse, plasma, po, 30 mg/kg",4490 ± 1510 ng/mL
same,MRT,"[13]; mouse, plasma, po, 30 mg/kg",4.18 ± 1.81 h
same,Tmax,"[13]; mouse, plasma, po, 30 mg/kg",1.08 ± 0.47 h
same,AUC(0-inf),"[13]; mouse, plasma, sc, 30 mg/kg",17400 ± 2220 ng·h/mL
same,Cmax,"[13]; mouse, plasma, sc, 30 mg/kg",5020 ± 854 ng/mL
same,MRT,"[13]; mouse, plasma, sc, 30 mg/kg",8.92 ± 1.35 h
same,Tmax,"[13]; mouse, plasma, sc, 30 mg/kg",0.88 ± 0.21 h
same,bioavailability,"[13]; mouse, plasma, subcutaneous, 30 mg/kg",56.6 ± 7.21%
